Where two headings read alike, the source gives them in different places. Marks after values point to notes of the source that are not given here.
Columns and labels:
LLC-PK1 cells = assay: Alkaline comet assay, basal endogenous DNA damage; conditions: LLC-PK1, 50 µM, 1 h, mean ± S.E.M.
Caco-2 cells [1] = assay: Alkaline comet assay, basal endogenous DNA damage; conditions: Caco-2, 50 µM, 1 h, mean ± S.E.M.
HeLa cells [2] = assay: Comet assay with endonuclease III, oxidative DNA damage; format: cell-based, human; conditions: 50 µM, net damage recognised by Endo III (oxidative DNA damage)
Experimental: Oxidative DNA damage was evaluated with the DNA repair enzyme–endonuclease III (Endo III, New England Biolabs Inc., Germany) in model HeLa cells. The procedure was performed according to [67]. To estimate the ability of the enzyme to recognize oxidized DNA bases, the cells were incubated either with tested compounds (at concentration of 50 µM), or hydrogen peroxide (50 µM), lysed and post-treated with Endo III. After lysis slides were washed three times in an enzyme buffer (composed of 40 mM HEPES-KOH, 0.1 KCl, 0.5 mM EDTA, 0.2 mg/mL bovine serum albumin, pH 8.0) and drained, and the agarose was covered with 25 µL of either enzyme buffer or enzyme at 1 µg/mL in buffer, sealed with a cover glass and incubated for 30 min at 37°C. Further steps were described above. To determine the net value of DNA damage recognized by the enzyme, the DNA damage observed in the absence of the enzyme was subtracted from that measured in the presence of it.

HeLa cells [3] = assay: Alkaline comet assay, basal endogenous DNA damage; conditions: 1 h, mean ± S.E.M.
HeLa cells [4] = assay: Neutral comet assay, DNA double-strand breaks (DSBs); format: cell-based, human; conditions: 50 µM
Experimental: The ability of tested compounds (at concentration of 50 µM) to induce DNA double-strand breaks (DSBs) in model HeLa cells was evaluated by the neutral comet assay according to Błasiak et al. (2012). In this version of the comet assay electrophoresis ran in a buffer consisting of 100 mM Tris and 300 mM sodium acetate at pH 9.0 (with glacial acetic acid). Electrophoresis was conducted for 60 min, after a 20 min equilibrium period, at an electric field strength of 0.41 V/cm (50 mA) at 4 °C. The slides were then proceeded as described in the “Single-cell gel electrophoresis assay” section.

Caco-2 cells [5] = conditions: human, 1 h, 50 µM

Row | SMILES | DNA damage, percentage of DNA in the comet tail (LLC-PK1 cells) | DNA damage, percentage of DNA in the comet tail (Caco-2 cells [1]) | Mean DNA (%) in Comet Tail (±S.E.M.) of HeLa Cells, Endo III (HeLa cells [2]) | DNA damage, percentage of DNA in the comet tail (HeLa cells [3]; 50 µM) | Mean DNA (%) in Comet Tail (±S.E.M.) of HeLa Cells, DSBs (HeLa cells [4]) | DNA damage, percentage of DNA in the comet tail (HeLa cells [3]; 1 µM) | DNA damage, percentage of DNA in the comet tail (Caco-2 cells [5])
1 | OO [hydrogen peroxide, reference compound] | 54.1% ± 0.2% | 42.0% ± 3.6% | 26.2% ± 4.6% | 50.3% ± 0.6% |  |  | 
2 | COc1ccc(C2CC(=NNC(=O)c3ccncc3)c3c(O)cc(O)cc3O2)cc1O (stereo not drawn) [HIN, N-[2,3-dihydro-5,7-dihydroxy-2-(3-hydroxy-4-methoxyphenyl)chromen-4-ylidene]isonicotinohydrazide] |  | 23.1% ± 3.4% | 5.3 ± 3.5 ^a % |  | 19.5 ± 0.7 ^a % | 28.9% ± 3.5% | 
3 | COc1ccc(C2CC(=NNC(=O)c3ccccc3)c3c(O)cc(O)cc3O2)cc1O (stereo not drawn) [HHSB, N-[2,3-dihydro-5,7-dihydroxy-2-(3-hydroxy-4-methoxyphenyl)chromen-4-ylidene]benzhydrazide] | 26.3% ± 4.8% | 34.0% ± 4.6% | 7.5 ± 3.9 ^a % |  |  | 28.8% ± 4.1% | 
4 | COc1ccc(C2C/C(=N\NC(=O)c3ccncc3)c3c([O][Cu][O]C(C)=O)cc(O)cc3O2)cc1O (stereo not drawn) [CuHIN, (E)-acetoxy((7-hydroxy-2-(3-hydroxy-4-methoxyphenyl)-4-(2-isonicotinoylhydrazono)chroman-5-yl)oxy)copper] |  |  | 12.2 ± 4.2 ^a % |  | 7.7 ± 3.6 ^a % |  | 
5 | COc1ccc(C2C/C(=N\NC(N)=S)c3c([O][Cu][O]C(C)=O)cc(O)cc3O2)cc1O (stereo not drawn) [CuHTSC, (E)-acetoxy((4-(2-carbamothioylhydrazono)-7-hydroxy-2-(3-hydroxy-4-methoxyphenyl)chroman-5-yl)oxy)copper] |  |  | 11.6 ± 1.9 ^a % |  | 6.4 ± 2.3 ^a,c % |  | 
6 | COc1ccc(C2C/C(=N\NC(=O)c3ccccc3)c3c([O][Cu][O]C(C)=O)cc(O)cc3O2)cc1O (stereo not drawn) [CuHHSB, (E)-acetoxy((4-(2-benzoylhydrazono)-7-hydroxy-2-(3-hydroxy-4-methoxyphenyl)chroman-5-yl)oxy)copper] |  |  | 8.3 ± 2.7 ^a % |  | 14.4 ± 0.7 ^a,b % |  | 
7 | COc1ccc(C2CC(=NNC(N)=S)c3c(O)cc(O)cc3O2)cc1O (stereo not drawn) [HTSC, N-[2,3-dihydro-5,7-dihydroxy-2-(3-hydroxy-4-methoxyphenyl)chromen-4-ylidene]thiosemicarbazide] |  |  | 10.2 ± 2.0 ^a % |  | 13.5 ± 0.7 ^a,c % |  | 32.8% ± 4.4%
8 | N.N.[Cl][Pt][Cl] [cisplatin, reference compound] | 73.1% ± 3.3% |  | 26.5 ± 3.9% |  | 30.2 ± 3.4% |  | 
